# In patent US9801373B2, “Compounds for alleviating phosphate starvation symptoms in plants” (Commissariat a l'Energie Atomique et aux Energies …, priority 2012, dated 2017):
# “Also recorded” adds a separate entry of the source.
# Assays:
# Format in all cases: in vivo, Arabidopsis thaliana
# [1] = system: PHT1 genes (PHT1;4); test: qPCR of PHT1 transcript level on root mRNA
# Protocol: Plant RNA was extracted with the RNeasy kit (QIAGEN, France). For transcriptome data, RNA were analysed by the CATMA technology (Complete Arabidopsis Transcriptome Microarray). For qPCR, poly(dT) cDNA were prepared from 500 ng total RNA with Superscript III reverse transcriptase (Invitrogen, France) and analysed on a LightCycler 480 apparatus (Roche Diagnostics, France) with the SYBR Green I Master kit (Roche Diagnostics, France) according to the manufacturer's instructions. Targets were quantified with specific primer pairs designed with Primer3 website (http://frodo.wi.mit.edu/primer3/) (see Table II below). Biological triplicates were performed for all experiments. Expression levels were normalized using At2g16600, At3g04120, At1g35160 and At1g32050 genes.
# [2] = system: Pi uptake capacity; test: Phosphate uptake experiments (33PO4); settings: −Pi+PTN1 vs −Pi, 7-day-old plantlets, FIG. 3 (B)
# Protocol: Phosphate uptake experiments were performed as previously described by Narang et al. (2000). 24 seedlings per conditions were incubated separately in a phosphate incubation solution containing ^33PO4 (5 mM MES, 0.1 mM CaCl2, 20 μM KH2PO4, 0.15 μCi/ml ^33PO4) for 2 h. After incubation in the uptake solution, plantlets were transferred to a chilled desorption medium (5 mM MES, 0.1 mM CaCl2, 1 mM KH2PO4) for 2 h at 4° C. Then, the seedlings were dried in scintillation vials at 60° C. overnight. An amount of 2 ml of scintillation cocktail (InstaGel, PerkinElmer, Wellesley, Mass., USA) was added and the radioactivity was measured with a scintillation analyzer (TRICARB, Packard instrument company). The amount of phosphate absorbed during the experiment was calculated and normalized per cm of root.
# [3] = Total phosphorus content by ICP; settings: FIG. 3 (C)
# Protocol: (§1) For the quantification of ions content, 50 mg of dry weight of each sample were mineralized in 14% HNO3 using a MarsX microwave system (CEM) for the determination of macro- and microelements by inductively coupled plasma optical emission spectrometry (ICP OES Vista MPX, Varian). Biological triplicates were performed for all experiments.
# [4] = system: phospholipids / glycolipids; test: Lipid composition of aerial part
# Protocol: Lipids and anthocyanins were analyzed as previously described by Jouhet (2003) and Ticconi (2001).
# [5] = system: wild-type (WT) seedlings; test: Primary root growth of wild-type seedlings
# Protocol: (§2) In the Pi deficient medium, NaCl (0.5 mM) was used to replace the equivalent amount of sodium provided by NaH2PO4. For controls of the effects of the compounds, 1% of DMSO (Dimethyl sulfoxid, SIGMA, 472301), solvent for the tested compounds, was added. After 2 days at 4° C., the plates were placed in a vertical position and plants were grown in a culture chamber under a 16 h light/8 h dark regime (24/21° C., 150 μE m^−2s^−1). For 4 weeks culture, large plates (24×24 cm) were placed in a horizontal position. Root architecture and aerial part area were quantified using program ImageJ.
# [6] = system: cycB1::GUS; test: Cell cycle marker cycB1::GUS in root tip; settings: 40 μM, −Pi seedlings, FIG. 7 (B)
# Protocol: The GUS activity was detected as previously described by Jefferson et al. (1987), using a GUS staining solution containing 50 mM sodium phosphate buffer pH 7.0; 0.01% Triton X-100, 1 mM K3Fe(CN)6, 1 mM K4Fe(CN)6, 1 mg/ml 5-bromo-4-chloro-3-indolyl B-D-glucuronide (X-Gluc). For cycB1::GUS staining, plants were incubated 6 hours at 37° C.
# [7] = system: root cortical cells; test: Cortical cell size of root; settings: −Pi seedlings, FIG. 7 (C)
# [8] = system: lpr1, lpr2 and lpi mutants; test: Primary root growth of mutants with reduced root sensitivity to Pi starvation; settings: 7-days-old plants, PTN1 40 μM, FIG. 8
# Excerpt: (§3) A “chemical genetics” approach has been carried out to isolate compounds that inhibit the phosphate (Pi) response in Arabidopsis thaliana. Compounds were screened for their ability to inhibit the expression of a phosphate starvation marker, namely the high affinity Pi transporter PHT1,4 gene. For the screening, the A. thaliana pht1;4-1 line (ecotype Wassilewskija) was chosen (Misson et al., 2004). It contains a T-DNA construct inserted into Pht1;4 gene creating a transcriptional fusion with a GUS reporter gene. For phenotypic analyses, A. thaliana Columbia and various lines derived from this ecotype were used. They are either transgenic lines expressing reporter gene as cycB1::GUS (Colón Carmona et al., 1999), MGD3::LUC, PHT1;4::LUC, At1g73010::LUC or various mutants affecting root response to low Pi such as: pdr2 (Ticconi et al., 2004), lpr1, lpr2 (Svistoonoff et al., 2007), lpi1, lpi2 and lpi3 (Sanchez-Calderon et al., 2006).
# (§4) In the Pi deficient medium, NaCl (0.5 mM) was used to replace the equivalent amount of sodium provided by NaH2PO4. For controls of the effects of the compounds, 1% of DMSO (Dimethyl sulfoxid, SIGMA, 472301), solvent for the tested compounds, was added. […] Root architecture and aerial part area were quantified using program ImageJ.
# [9] = system: pdr2 and phr1 mutants; test: Primary root growth of pdr2 and phr1 mutants; settings: 40 μM, 9 days after germination, FIG. 7 (E)
# Excerpt: as §3, §4
# [10] = Fe content assay by ICP; settings: −Pi+PTN1 40 μM, FIG. 9 (B)
# Protocol: as §1
# [11] = system: Col-0 plants; test: Shoot (rosette) area after 28 days; settings: four weeks on −Pi medium, FIG. 10 (A), (B)
# Protocol: as §2
# [12] = system: starch accumulation; test: Starch staining with lugol; settings: FIG. 10 (D)
# Protocol: Starch staining was performed according to Zakhleniuk et al. (2001). Aerial part of plants was placed 6 h in EtOH 90% before to be iodine stained for 30 min in lugol (lugol solution; Sigma, France) and washed several times in water.
# [13] = −Pi medium containing PTN1, FIG. 5 (B)
structure (smiles),measurement,setting,value
O=c1c(Sc2ccc(Cl)cc2)c(Sc2ccc(Cl)cc2)c1=O [PTN1],reduction of the impact of Pi starvation on the level of induction of PHT1 transcripts,"[1]; 40 μM, roots, 7-day-old plantlets, FIG. 3 (A)",at least 50%
same,efficiency on PHT1;4 relative to PTN2,[1]; FIG. 2 (B),twice more efficient than PTN2
same,effect on PHT1;4 transcript level,"[1]; qPCR on root mRNA, FIG. 2 (B)",dose dependant manner
same,reduction of Pi uptake capacity,[2],25%
same,"phosphorous amount vs −Pi control, leaves",[3],+40%
same,"phosphorous amount vs −Pi control, shoot",[3],+90%
same,reduction of DGDG content,"[4]; Pi-starved plants, aerial part, 10-day-old, FIG. 5 (C)",27%
same,glycolipids share in ratio of phospholipids onto glycolipids,[4]; [13],75%
same,phospholipids share in ratio of phospholipids onto glycolipids,[4]; [13],25%
same,PC and PE content,"[4]; −Pi seedlings, FIG. 5 (C)",partially reverted the effect of −Pi
same,primary root growth at various external Pi concentrations (15-250 uM),"[5]; 10 uM, 5 days on Pi rich medium then 24 hours on tested conditions, FIG. 7 (D)",improved root growth until 50/75 μM of Pi
same,primary root growth on −Pi,"[5]; WT, 7-day-old plantlets, FIG. 7 (A)",promote the primary root growth in a dose dependent manner
same,concentration of maximum effect on primary root growth and PHT1;4 inhibition,[5]; −Pi,40 µM
same,CycB1 expression in root tip,[6],expressed in the root tip of −Pi seedlings but there were fewer stained cells than in the +Pi control
same,root cortical cell elongation,[7],restored root cell elongation of −Pi seedlings to an extant closed to the untreated control grown on a +Pi medium
same,primary root growth of lpr1 or lpi mutants,[8],no additive effect; also recorded: did not impact the primary root growth
same,root growth of pdr2 mutant,[9],substantially reverted the root growth defect
same,root growth restriction of phr1 mutant imposed by −Pi,[9],partially alleviated
same,Fe content in plants,[10],did not reduce the Fe content
same,rosette area (leaf growth) vs −Pi,[11],+50%
same,starch accumulation,[12],severely attenuated
